Reference: patent US9340533B2, “1,4-benzothiazepine-1-oxide derivative and pharmaceutical composition utilizing the same” (priority 2009, dated 2016)

Experiments:
[1] = test system: Male Wistar rats; assay: Comparison of heart rate, LV pressure and LV diastolic function (-dP/dt) in anesthetized rats; format: in vivo, rat; settings: for Heart rate after administration / LV diastolic function (−dP/dt) after administration / LV pressure after administration: 0.3 mg/kg/min i.v. for 5 minutes, anesthetized rats; for LV diastolic function (−dP/dt) before administration / LV pressure before administration / Heart rate before administration: baseline of the same rats before infusion; for Heart rate before administration: four rats per group
Text: Male Wistar rats weighing 280-300 g were bred. After one week, animals were anesthetized with 3% isoflurane inhalation and respiration was subsequently controlled with an artificial ventilator using 1.7% isoflurane for maintained anesthetization. A micronanometer-tipped pressure catheter (2F, Millar Instruments) was inserted from the right common carotid artery into the left ventricle (LV) and a polyethylene catheter (SP10) for solution injection was inserted from the right femoral vein and the compounds [III] and [II] (R═H) were injected. After confirming stable hemodynamics for 10 minutes, heart rate, LV pressure, and maximal negative first derivative of LV pressure (−dP/dt) were investigated continuously. Each compound [III] or [II] was infused at 0.3 mg/kg/min for 5 minutes. Four rats in each group were evaluated. The solvent used consisted of 0.05% citric acid and 5% sorbitol. Each parameter before and after 5 minutes of administration was determined for 20 heart beats.

[2] = test system: chronic infarct rat; assay: Norepinephrine-induced LV diastolic dysfunction in chronic infarct rat; format: in vivo
Text: Male Wistar rats were used. After induction of anesthesia with 3% isoflurane inhalation, a polyethylene tube was inserted into the trachea. Respiration was subsequently controlled with an artificial ventilator with maintenance of anesthesia using 1.7% isoflurane. The chest was opened at the left third intercostals space and the pericardial membrane was incised. The left anterior descending coronary artery (LAD) was completely ligated with silk string (6.0, Ethicon) in the infarction group. Following this procedure, the chest was immediately closed, the inserted tube in the trachea was removed, and subjects returned to the breeding room after arousal.
Two months after operation, animals were again anesthetized and intubated as described above. A micronanometer-tipped pressure catheter (2F, Millar Instruments) was inserted into the right common carotid artery into the left ventricle (LV) and a polyethylene catheter (SP10) for solution injection was inserted from the right femoral vein to infuse the physiological salt solution (PSS) or test compound solutions. After confirming stable hemodynamics for 10 minutes, 20 μg/kg/min of norepinephrine was infused for 30 minutes in the chronic infarction group. The invention compound [III] (0.1 mg/kg/min) and PSS were infused for 10 minutes after 20 minutes of administration of norepinephrine at 16.6 μL/min for test and control groups, respectively. LV minimum diastolic pressure and LV end-diastolic pressure was counted every minute for 20 heart beats. The area of myocardial infarction (infarction size) in rats was estimated using the modified method of Sandmann et al (J Cardiovasc Pharmacol 2000; 37; 64-77.) for administration of the compound of the present invention and PSS. That is, the infarct size (%) was estimated using the followed formula: […]
Data is shown as means and standard error. The following results are shown in Table 4 (control) and Table 5 (the compound), respectively.

[3] = Solubility in solvents; format: physicochemical
Text: The compound of the present invention, 3-4-benzylpiperidin-1-yl)propionyl-7-methoxy-2,3,4,5-tetrahydro-1,4-benzothiazepine-1-oxide, which is produced by an oxidation of the hydrochloride salt represented by formula [V] by the oxidant, isolated by silica gel chromatography using chloroform-methanol as a solvent, followed by removed the solvent from the chloroform-methanol solution by azeotropic distillation, and finally removed by the residual solvent in argon. The purity of compound presented by formula [III], thus obtained is 90% or higher, and a molecular weight (mw) of the compound is 440.61. […] The compound has stereoisomers in the amide form, is confirmed to exist at the rate of about 2:3 in of amide parts using H-NMR analysis at room temperature.

[4] = test system: left anterior descending coronary artery of porcine heart; assay: Coronary relaxation of KCl-contracted porcine coronary artery strip (organ bath); settings: Sus scrofa, read-out: concentration inducing 50% of relaxation (EC50%)
Procedure: Porcine heart was purchased without regard of gender. The heart was carried in steep, cool Krebs-Henseleit solution, filled with 95% bubbling oxygen (O2) gas and bicarbonate (CO2) and the left anterior descending coronary artery of 2.5-3 mm diameter was removed. The artery was steeped in the same nutrition solution overnight in a refrigerator and the next day a specimen from a short strip removal in the endothelium (open ring) of width 3 mm was obtained. The specimen was hanged in 10 ml of the organ bath filled with Krebs-Henseleit solution, 95% bubbling oxygen (O2) and bicarbonate (CO2) at 37° C. One side was fixed and the other side was connected to the isometric transducer (T7-8-240, T7-30-240, Olientic) and the change of tension on the amplifier was used for tension recording. After confirming the state for 120 minutes under 1.5 g loading, KCl (40 mM) was added. When the contraction reached a maximum, KCl was washed out. This wash-out was repeated 4 times during the course of 15 minutes. After the stable contraction of KCl was obtained, KCl (30 mM) dissolved in saline was added. […] The Krebs-Henseleit solution without the compounds served as the control.

[5] = test system: Male Wistar rats; assay: Norepinephrine-induced hypertension in rats, LV pressure; format: in vivo, rat; settings: under norepinephrine 20 μg/kg/min
Procedure: Male Wistar rats weighing 260 g were anesthetized with 3% isoflurane inhalation and respiration was subsequently controlled with an artificial ventilator using 1.7% isoflurane for maintained anesthetization. A micronanometer-tipped pressure catheter (2F, Millar Instruments) was inserted from the right common carotid artery into the left ventricle (LV) and a polyethylene catheter (SP 10) for solution injection was inserted from the right femoral vein and test solutions were injected. After confirming stable hemodynamics for 10 minutes, norepinephrine (20 μg/kg/min) was infused for 10 minutes followed by the infusion of the invention compound [III] (0.1 mg/kg/min) for 10 minutes. This invention compound [III] was infused three times with intervals of 10 minutes each. LV pressure was determined for 20 heart beats before and after administration. The infusion speed of each solution was 16.6 μL/min.

[6] = test system: normal rat; assay: LV diastolic function in normal rat (LV catheter, i.v. infusion); format: in vivo; settings: 0.1 mg/kg/min i.v. infusion for 10 minutes, before administration set at 100%, mean and standard deviation
Text: (1) After breeding for 1 week, male Wistar rats were anesthetized with 3% isoflurane inhalation, followed by an insertion of a tube in the trachea and respiration subsequently controlled with an artificial ventilator using 1.7% isoflurane for maintained anesthetization. A micrometer-tipped pressure catheter (Manufactured by 2F, Millar Instruments) was inserted from the right common carotid artery into the left ventricle (LV) and a polyethylene catheter (SP10) was inserted into the right femoral vein for the compound of the present invention or physiological salt solution (PSS) injections. After confirming stable hemodynamics for 10 minutes, LV minimum diastolic pressure and LV end-diastolic pressure was counted every minute. The compound [III] (0.1 mg/kg/min) of the present invention or PSS was infused at 16.6 μL/min for 10 minutes in the test and control groups, respectively.
LV minimum diastolic pressure and LV end-diastolic pressure was counted every minute for 20 heart beats before and after administration of the compound. […] Data is shown as mean and standard deviation.

[7] = Stability of the compound at room temperature; format: physicochemical; settings: exposure to oxygen, humidity, acid and alkali at room temperature
[8] = Skin irritation
[9] = chronic infarct rat, baseline before norepinephrine infusion
[10] = chronic infarct rat, norepinephrine 20 μg/kg/min infusion
[11] = chronic infarct rat under norepinephrine 20 μg/kg/min, 0.1 mg/kg/min infused 10 minutes, before administration set at 100%, mean and standard error

In the case of `COc1ccc2c(c1)CN(C(=O)CCN1CCC(Cc3ccccc3)CC1)CCS2` [compound [II] (R═H), 4-[3-(4-benzylpiperidin-1-yl)propionyl]-7-methoxy-2,3,4,5-tetrahydro-1,4-benzothiazepine, reference compound], the “Heart rate after administration” value [1] is reported as 320.2±24.2 beat/min, the “LV diastolic function (−dP/dt) after administration” value [1] is reported as −5311.0±961.4 mmHg/sec and the “LV pressure after administration” value [1] is reported as 100.8±6.0 mmHg. For the same compound, the “LV diastolic function (−dP/dt) before administration” value [1] was −5973.4±1121.3 mmHg/sec, the “LV pressure before administration” value [1] was 103.7±4.2 mmHg and the “Heart rate before administration” value [1] was 370.1±18.9 beat/min.

In the case of `NC[C@H](O)c1ccc(O)c(O)c1` [Norepinephrine, norepinephrine], the “LV end-diastolic pressure before administration of Norepinephrine” value [2, 9] is reported as 6.5 ± 0.7 mmHg, the “LV minimum diastolic pressure before administration of Norepinephrine” value [2, 9] is reported as 4.5 ± 0.8 mmHg and the “LV end-diastolic pressure after administration of Norepinephrine” value [2, 10] is reported as 25.8 ± 1.1 mmHg. The “LV minimum diastolic pressure after administration of Norepinephrine” value [2, 10] was 18.5 ± 1.2 mmHg.

With `COc1ccc2c(c1)CN(C(=O)CCN1CCC(Cc3ccccc3)CC1)CC[S+]2[O-]` (stereo not drawn) [compound [III], 4-[3-(4-benzylpiperidin-1-yl)propionyl]-7-methoxy-2,3,4,5-tetrahydro-1,4-benzothiazepine-1-oxide] the “LV end-diastolic pressure after administration” value [2, 11] was 78.4 ± 6.6%, the “LV minimum diastolic pressure after administration” value [2, 11] was 76.0 ± 5.2% and the solubility in solvents [3] was “easily dissolved in ethanol and dimethysulfoxide (DMSO)”. The “Heart rate after administration” value [1] was 360.9±29.1 beat/min, the “LV diastolic function (−dP/dt) after administration” value [1] was −5982.6±520.1 mmHg/sec and the “LV pressure after administration” value [1] was 106.3±5.5 mmHg. The “LV diastolic function (−dP/dt) before administration” value [1] was −5631.4±395.9 mmHg/sec, the “LV pressure before administration” value [1] was 106.0±5.8 mmHg and the “Heart rate before administration” value [1] was 361.7±26.5 beat/min. For the same compound, the EC50 [4] was 42 µM, the “LV pressure before administration” value ([5]; before compound infusion) was 189.2±14.0 mmHg and the “LV pressure after administration” value ([5]; compound 0.1 mg/kg/min for 10 minutes, infused three times) was 180.3±14.9 mmHg. For the same compound, the “LV end-diastolic pressure after administration” value [6] was 78.4 ± 6.6%, the “LV minimum diastolic pressure after administration” value [6] was 76.0 ± 5.2% and the stability [7] was “stable against exposure of oxygen, humidity, acid and alkali at room temperature”. The skin irritation [8] was “irritating to the skin”.

`COc1ccc2c(c1)CN(C(=O)CCN1CCC(Cc3ccc(O)cc3)CC1)CC[S+]2[O-]` (stereo not drawn) [compound [IV], 4-{3-[4-(4-hydroxybenzyl)piperadin-1-yl]propionyl}-7-methoxy-2,3,4,5-tetrahydro-1,4-benzothiazepine-1-oxide] gave an EC50 [4] of 100 µM.
